We go through 36 molecules from patent publication US20240034736A1, “HSD17B13 INHIBITORS AND USES THEREOF” (FL2022-001, Inc., priority 2020, published 2024).

Broadly, the IC50 is the concentration needed to halve the response being measured. As usually defined, the inhibition is the change of the read-out against control, counted positive when it falls.

Bounds are passed on as bounds.

Chain of Recombinant human HSD17B13 enzyme (Q7Z5P4 20-300): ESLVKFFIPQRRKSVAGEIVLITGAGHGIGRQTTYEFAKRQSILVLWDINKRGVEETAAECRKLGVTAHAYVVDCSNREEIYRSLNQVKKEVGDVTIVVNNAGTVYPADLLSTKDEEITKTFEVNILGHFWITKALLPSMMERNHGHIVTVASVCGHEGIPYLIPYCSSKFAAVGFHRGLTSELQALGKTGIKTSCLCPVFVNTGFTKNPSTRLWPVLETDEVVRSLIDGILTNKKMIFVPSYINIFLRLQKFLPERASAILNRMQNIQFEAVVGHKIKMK

One test addresses Recombinant human HSD17B13 enzyme (Homo sapiens (Human), UniProt Q7Z5P4). The test is described as follows: HSD17b13 NAD(P)H-Glo Biochemical Assay. Conditions: 50 uM estradiol, 1 mM NAD+; read-out: HSD17β13 IC50. Put shortly: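 Luminescent NAD(P)H-Glo detection (1 h, RT) quantified cofactor reduction after a 3 h, 37° C reaction of human HSD17B13 with estradiol (50 uM final) and NAD+ (1 mM final). Compounds were first pre-incubated 20 min at RT with enzyme in Tris pH 7.4 buffer containing Tween-20 and BSA.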
Consider `Cc1nn(-c2cc(C(F)(F)F)c(F)c(O)c2F)c2cc(F)c(N(C)C3CCOCC3)nc12` [Compound 19.66, 2,6-Difluoro-3-(6-fluoro-3-methyl-5-(methyl(tetrahydro-2H-pyran-4-yl)amino)-1H-pyrazolo[4,3-b]pyridin-1-yl)-5-(trifluoromethyl)phenol], for which the 50% inhibitory concentration (IC50) is less than 100 nM.
With `Oc1cc(-n2ncc3cc(-c4ccc(O)c(Cl)c4)ccc32)c(F)cc1F` [Compound 8.02, 5-(5-(3-Chloro-4-hydroxyphenyl)-1H-indazol-1-yl)-2,4-difluorophenol], the concentration for half-maximal inhibition (IC50) fell in the range of 100 to 1000 nM.
With `CC(=O)N1CCC(c2ccc3c(cnn3-c3ccc(F)c(O)c3)c2)CC1` [Compound 26, 1-(4-(1-(4-Fluoro-3-hydroxyphenyl)-1H-indazol-5-yl)piperidin-1-yl)ethan-1-one], the half-maximal inhibitory concentration (IC50) was 1000 to 30000 nM.
On the same count and under the same terms, with `C[C@@H]1COCCN1c1cc2cnn(-c3cc(O)c(F)c(C(F)(F)F)c3)c2cn1` [Compound 21.55, (R)-2-Fluoro-5-(5-(3-methyl-morpholino)-1H-pyrazolo[3,4-c]pyridin-1-yl)-3-(trifluoro-methyl)phenol] the figure was 100 to 1000 nM; with `CS(=O)(=O)N1CCN(c2cc3cnn(-c4ccc(C(F)(F)F)c(O)c4F)c3cn2)CC1` [Compound 19.25, 2-Fluoro-3-(5-(4-(methylsulfonyl)piperazin-1-yl)-1H-pyrazolo[3,4-c]pyridine-1-yl)-6-(trifluoromethyl)phenol], 1000 to 30000 nM.
Same read-out and setting: with `Oc1ccc(-c2ccc3c(cnn3-c3cc(O)c(F)c(F)c3)c2)c(Cl)c1` [Compound 4.10, 5-(5-(2-Chloro-4-hydroxyphenyl)-1H-indazol-1-yl)-2,3-difluorophenol] the figure was 100 to 1000 nM; with `CS(=O)(=O)N1CCN(c2cc3cnn(-c4cc(C(F)(F)F)c(F)c(O)c4F)c3cn2)CC1` [Compound 19.38, 2,6-Difluoro-3-(5-(4-(methylsulfonyl)piperazin-1-yl)-1H-pyrazolo[3,4-c]pyridine-1-yl)-5-(trifluoromethyl)phenol], 100 to 1000 nM; with `Cc1nn(-c2cc(O)c(F)cc2C#N)c2cnc(N(C)C3CCOCC3)cc12` [Compound 19.62, 5-Fluoro-4-hydroxy-2-(3-methyl-5-(methyl(tetrahydro-2H-pyran-4-yl)amino)-1H-pyrazolo[3,4-c]pyridin-1-yl)benzonitrile], 100 to 1000 nM.
Turning to `O=S(=O)(c1ccc2c(cnn2-c2cc(O)c(F)c(F)c2)c1)N1CCOCC1` [Compound 30.01, 2,3-Difluoro-5-(5-(morpholinosulfonyl)-1H-indazol-1-yl)phenol], the IC50 was 100 to 1000 nM.
Take `CS(=O)(=O)Nc1ccc(-c2ccc3c(cnn3-c3ccc(F)c(O)c3)c2)c(Cl)c1` [Compound 10, N-(3-Chloro-4-(1-(4-fluoro-3-hydroxyphenyl)-1H-indazol-5-yl)phenyl)methanesulfonamide]: the IC50 fell in the range of 100 to 1000 nM.
`CCCCCOc1ncc2c(n1)c(C)nn2-c1cc(C(F)(F)F)c(F)c(O)c1F` [Compound 19.117, 2,6-Difluoro-3-(3-methyl-5-(pentyloxy)-1H-pyrazolo[4,3-d]pyrimidin-1-yl)-5-(trifluoromethyl)phenol]: the 50% inhibitory concentration (IC50) lay within 100 to 1000 nM.
On to `CS(=O)(=O)Nc1ccc(-c2ccc3c(cnn3-c3ccc(F)c(O)c3)c2)cn1` [Compound 11.02, N-(5-(1-(4-Fluoro-3-hydroxyphenyl)-1H-indazol-5-yl)pyridine-2-yl)methanesulfonamide], for which the IC50 is 1000 to 30000 nM.
For `Oc1c(F)c(-n2cnc3cc(N4CCOCC45CC5)ncc32)cc(C(F)(F)F)c1F` [Compound 21.60, 3-(6-(7-Oxa-4-azaspiro[2.5]-octan-4-yl)-3H-imidazo[4,5-c]pyridin-3-yl)-2,6-difluoro-5-(trifluoromethyl)phenol], the IC50 was 1000 to 30000 nM.
Take `Cc1nn(-c2ccc(F)c(O)c2)c2cc(F)c(N3CCN(S(C)(=O)=O)CC34CC4)cc12` [Compound 19.103, 2-Fluoro-5-(6-fluoro-3-methyl-5-(7-(methylsulfonyl)-4,7-diazaspiro[2.5]octan-4-yl)-1H-indazol-1-yl)phenol]: the IC50 lay within 100 to 1000 nM.
As for `CS(=O)(=O)NC1CCN(c2ccc3c(cnn3-c3cc(O)c(F)c(F)c3)c2)CC1` [Compound 21.05, N-(1-(1-(3,4-Difluoro-5-hydroxyphenyl)-1H-indazol-5-yl)piperidin-4-yl)methane-sulfonamide], the IC50 fell in the range of 1000 to 30000 nM.
On to `CC1(C)CC=C(c2ccc3nn(-c4cc(O)c(F)c(C(F)(F)F)c4)cc3c2)CC1` [Compound 18.02, 5-(5-(4,4-Dimethylcyclohex-1-en-1-yl)-2H-indazol-2-yl)-2-fluoro-3-(trifluoromethyl)phenol], for which the IC50 fell in the range of 100 to 1000 nM.
In the case of `Oc1cc(-n2ncc3cc(N4CCC(O)CC4)ccc32)ccc1F` [Compound 20.01, 1-(1-(4-Fluoro-3-hydroxy-phenyl)-1H-indazol-5-yl)-piperidin-4-ol], the IC50 lay in the range of 1000 to 30000 nM.
With `N#Cc1cccc(-c2ccc3c(cnn3-c3ccc(F)c(O)c3)c2)c1` [Compound 6.01, 3-(1-(4-Fluoro-3-hydroxyphenyl)-1H-indazol-5-yl)benzonitrile], the half-maximal inhibitory concentration (IC50) lay within 100 to 1000 nM.
Take `CS(=O)(=O)N1CCN(c2ccc3c(cnn3-c3nccc(O)c3F)c2)CC1` [Compound 28.06, 3-Fluoro-2-(5-(4-(methyl-sulfonyl)piperazin-1-yl)-1H-indazol-1-yl)pyridin-4-ol]: the concentration for half-maximal inhibition (IC50) was 1000 to 30000 nM.
Same read-out and setting: with `CNC(=O)C1(c2ccc3c(cnn3-c3cc(O)c(F)c(F)c3)c2)CCN(S(C)(=O)=O)CC1` [Compound 29, 4-(1-(3,4-Difluoro-5-hydroxyphenyl)-1H-indazol-5-yl)-N-methyl-1-(methylsulfonyl)piperidine-4-carboxamide] the figure was 1000 to 30000 nM; with `CN(C)C(=O)c1nn(-c2ccc(F)c(O)c2)c2ccc(-c3ccc(O)c(Cl)c3)cc12` [Compound 14, 5-(3-Chloro-4-hydroxyphenyl)-1-(4-fluoro-3-hydroxyphenyl)-N,N-dimethyl-1H-indazole-3-carboxamide], 100 to 1000 nM; with `N#Cc1cc(O)ccc1-c1ccc2c(cnn2-c2ccc(F)c(O)c2)c1` [Compound 5.07, 2-(1-(4-Fluoro-3-hydroxyphenyl)-1H-indazol-5-yl)-5-hydroxybenzonitrile], 100 to 1000 nM.
With `CS(=O)(=O)Nc1ccc(-c2ccc3c(cnn3-c3ccc(F)c(O)c3)c2)cc1` [Compound 4.02, N-(4-(1-(4-Fluoro-3-hydroxyphenyl)-1H-indazol-5-yl)phenyl)methanesulfonamide], the IC50 lay within 100 to 1000 nM.
`COc1ccc(Nc2ccc3c(cnn3-c3ccc(F)c(O)c3)c2)cc1Cl` [Compound 22, 5-(5-((3-Chloro-4-methoxyphenyl)amino)-1H-indazol-1-yl)-2-fluorophenol]: the half-inhibitory concentration (IC50) fell in the range of 100 to 1000 nM.
`CC1(C)CN(S(C)(=O)=O)CCN1c1cc2cn(-c3cc(O)c(F)c(C(F)(F)F)c3)nc2cn1` [Compound 19.05, 5-(5-(2,2-Dimethyl-4-(methylsulfonyl)piperazin-1-yl)-2H-pyrazolo[3,4-c]pyridine-2-yl)-2-fluoro-3-(trifluoromethyl)phenol]: the IC50 fell in the range of 100 to 1000 nM.
`CS(=O)(=O)N1CCN(c2cc3cnn(-c4cc(O)c(F)c(F)c4)c3cc2C(F)(F)F)CC1` [Compound 21.19, 2,3-Difluoro-5-(5-(4-(methyl-sulfonyl)piperazin-1-yl)-6-(trifluoromethyl)-1H-indazol-1-yl)phenol]: the IC50 lay within 1000 to 30000 nM.
On the same count and under the same terms, with `Oc1cc(-c2noc3cc(-c4ccc(O)c(Cl)c4)ccc23)ccc1F` [Compound 5.30, 2-Chloro-4-(3-(4-fluoro-3-hydroxyphenyl)benzo[d]isoxazol-6-yl)phenol] the figure was 100 to 1000 nM.
With `C[C@H]1COCCN1c1cc2cnn(-c3cc(O)c(F)c(C(F)(F)F)c3)c2cn1` [Compound 21.56, (S)-2-Fluoro-5-(5-(3-methyl-morpholino)-1H-pyrazolo[3,4-c]pyridin-1-yl)-3-(trifluoro-methyl)phenol], the concentration for half-maximal inhibition (IC50) lay in the range of 100 to 1000 nM.
Turning to `CS(=O)(=O)N1CCN(c2cc3cn(-c4ccc(F)c(O)c4)nc3cn2)CC1` [Compound 19.10, 2-Fluoro-5-(5-(4-(methylsulfonyl)piperazin-1-yl)-2H-pyrazolo[3,4-c]pyridine-2-yl)phenol], the concentration for half-maximal inhibition (IC50) was 1000 to 30000 nM.
As for `Cc1nn(-c2cc(C(F)(F)F)c(F)c(O)c2F)c2cnc(N(C)C3CCOCC3)nc12` [Compound 19.78, 2,6-Difluoro-3-(3-methyl-5-(methyl(tetrahydro-2H-pyran-4-yl)amino)-1H-pyrazolo[4,3-d]pyrimidin-1-yl)-5-(trifluoromethyl)phenol], the IC50 is less than 100 nM.
`Oc1cc(-n2ncc3cc(N4CCOCC45CC5)ncc32)cc(C(F)(F)F)c1F` [Compound 21.54, 5-(5-(7-Oxa-4-azaspiro[2.5]-octan-4-yl)-1H-pyrazolo[3,4-c]pyridin-1-yl)-2-fluoro-3-(trifluoromethyl)phenol]: the IC50 lay within 100 to 1000 nM.
As to `Oc1ccc(-c2ccc3c(cnn3-c3cccc(O)c3F)c2)cc1Cl` [Compound 3.01, 3-(5-(3-Chloro-4-hydroxyphenyl)-1H-indazol-1-yl)-2-fluorophenol], the IC50 was 100 to 1000 nM.
Take `Cc1ccc(-c2ccc3c(cnn3-c3ccc(F)c(O)c3)c2)cc1` [Compound 4.07, 2-Fluoro-5-(5-(p-tolyl)-1H-indazol-1-yl)phenol]: the IC50 is 100 to 1000 nM.
As for `O=S(=O)(c1ccc2c(cnn2-c2cc(O)c(F)c(F)c2)c1)N1CCCCC1` [Compound 30, 2,3-Difluoro-5-(5-(piperidin-1-ylsulfonyl)-1H-indazol-1-yl)phenol], the IC50 was 1000 to 30000 nM.
The same measure, in the same setting: with `Oc1cnc(-c2ccc3c(cnn3-c3cc(O)c(F)c(F)c3)c2)c(Cl)c1` [Compound 16.01, 5-Chloro-6-(1-(3,4-difluoro-5-hydroxyphenyl)-1H-indazol-5-yl)pyridine-3-ol] the figure was 100 to 1000 nM.

Staying with this test, now noted: read-out: HSD17β13 inhibition at 30 uM.
For the molecule `CS(=O)(=O)N1CCN(c2cc3cn(-c4ccc(C#N)c(O)c4)nc3cn2)CC1` [Compound 19.37, 2-Hydroxy-4-(5-(4-(methylsulfonyl)piperazin-1-yl)-2H-pyrazolo[3,4-c]pyridine-2-yl)benzonitrile], the inhibition at 30 µM turned out to be 43%.
